In patent US9695178B2, “6-(2-pyridyl)-7,8-dihydro-5H-pyrido[4,3-D]pyrimidine analogs as hedgehog pathway signaling inhibitors and therapeutic applications thereof” (Suzhou Yunxuan Yiyao Keji Youxian Gongsi, priority 2013, dated 2017):

Target: Smo (Homo sapiens, UniProt Q99835)
Test: Bodipy-Cyclopamine Binding Assay (confirmation assay), Hek293-SMO cells

Sequence of Smo (Q99835 28-787): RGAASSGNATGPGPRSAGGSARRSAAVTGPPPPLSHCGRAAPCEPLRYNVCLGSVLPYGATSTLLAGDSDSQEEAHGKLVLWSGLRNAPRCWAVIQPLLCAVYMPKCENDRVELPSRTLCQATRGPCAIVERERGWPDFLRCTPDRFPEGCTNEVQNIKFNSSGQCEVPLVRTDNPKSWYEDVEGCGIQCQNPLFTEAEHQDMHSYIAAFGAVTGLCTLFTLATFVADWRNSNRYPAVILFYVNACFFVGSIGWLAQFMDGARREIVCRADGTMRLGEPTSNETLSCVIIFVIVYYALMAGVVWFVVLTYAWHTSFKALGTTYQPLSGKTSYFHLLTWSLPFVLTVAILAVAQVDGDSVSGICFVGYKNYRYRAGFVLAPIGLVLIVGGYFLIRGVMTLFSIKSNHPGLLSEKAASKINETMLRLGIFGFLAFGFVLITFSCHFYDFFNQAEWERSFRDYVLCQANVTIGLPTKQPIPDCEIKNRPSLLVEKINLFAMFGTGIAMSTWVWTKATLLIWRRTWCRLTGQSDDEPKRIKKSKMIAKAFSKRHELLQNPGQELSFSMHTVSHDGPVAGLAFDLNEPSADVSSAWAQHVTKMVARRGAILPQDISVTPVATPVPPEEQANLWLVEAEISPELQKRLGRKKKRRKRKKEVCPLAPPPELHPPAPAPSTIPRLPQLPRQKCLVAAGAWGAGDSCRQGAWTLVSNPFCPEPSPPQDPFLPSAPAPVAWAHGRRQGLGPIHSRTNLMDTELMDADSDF

| Compound | IC50 [nM] |
| --- | --- |
| Clc1cnc(N2CCc3nc(NC4CC4)ncc3C2)cc1-c1ccc2ccccc2n1 [Compound A-112, 6-(5-chloro-4-(quinolin-2-yl)pyridin-2-yl)-N-cyclopropyl-5,6,7,8-tetrahydropyrido-[4,3-d]pyrimidin-2-amine] | 113 |
| CCOC(=O)Nc1ncc2c(n1)CCN(c1cc(-c3ncc(C)cc3C)c(Cl)cn1)C2 [Compound A-90, ethyl 6-(5′-chloro-3,5-dimethyl-2,4′-bipyridin-2′-yl)-5,6,7,8-tetrahydropyrido[4,3-d]pyrimidin-2-ylcarbamate] | 408 |
| Cc1cnc(-c2cc(N3CCc4nc(NCC5CC5)ncc4C3=O)ncc2Cl)c(C)c1 [Compound A-104, 6-(5′-chloro-3,5-dimethyl-2,4′-bipyridin-2′-yl)-2-(cyclopro-pylmeth-ylamino)-7,8-dihydro-pyrido[4,3-d]pyrimidin-5(6H)-one] | 76 |
| Cc1cnc(-c2cc(N3CCc4nc(N(C)S(C)(=O)=O)ncc4C3)ncc2Cl)c(C)c1 [Compound A-58, N-(6-(5′-chloro-3,5-dimethyl-2,4′-bipyridin-2′-yl)-5,6,7,8-tetrahydro-pyrido-[4,3-d]pyrim-idin-2-yl)-N-methylmethane-sulfonamide] | 59.8 |
| Cc1cnc(-c2cc(N3CCc4nc(N5CCCC5)ncc4C3)ncc2Cl)c(C)c1 [Compound A-53, 6-(5′-chloro-3,5-dimethyl-2,4′-bipyridin-2′-yl)-2-(pyrrolidin-1-yl)-5,6,7,8-tetrahydro-pyrido-[4,3-d]pyrimidine] | 24.9 |
| CCC(=O)Nc1nc2c(s1)CN(c1cc(-c3ncc(C)cc3C)c(Cl)cn1)CC2 [Compound A-25, N-(5-(5′-chloro-3,5-dimethyl-2,4′-bipyridin-2′-yl)-4,5,6,7-tetrahydro-thiazolo-[5,4-c]pyridin-2-yl)propion-amide] | 101 |
| Cc1cnc(-c2cc(N3CCn4cc(C(=O)Nc5ccccc5F)nc4C3)ncc2Cl)c(C)c1 [Compound A-20, 7-(5′-chloro-3,5-dimethyl-2,4′-bipyridin-2′-yl)-N-(2-fluorophenyl)-5,6,7,8-tetrahydro-imidazo-[1,2-a]pyrazine-2-carboxamide] | 507 |
| Cc1cnc(-c2cc(N3CCn4cc(C(=O)OC5CCCC5)nc4C3)ncc2Cl)c(C)c1 [Compound A-17, cyclopentyl 7-(5′-chloro-3,5-dimethyl-2,4′-bipyridin-2′-yl)-5,6,7,8-tetrahydro-imidazo-[1,2-a]pyrazine-2-carboxylate] | > 1000 |
| Cc1cnc(-c2cc(N3CCc4nc(OC5CCC5)sc4C3)ncc2Cl)c(C)c1 [Compound A-47, 5-(5′-chloro-3,5-dimethyl-2,4′-bipyridin-2′-yl)-2-cyclobutoxy-4,5,6,7-tetrahydro-thiazolo-[5,4-c]pyridine] | 88.3 |
| Cc1cnc(-c2cc(N3CCc4nc(NC5CC5)ncc4C3=O)ncc2Cl)c(C)c1 [Compound A99, 6-(5′-chloro-3,5-dimethyl-2,4′-bipyridin-2′-yl)-2-(cyclopropyl-amino)-7,8-dihydro-pyrido[4,3-d]pyrimidin-5(6H)-one] | 24.8 |
| Cc1cnc(-c2cc(N3CCc4nc(-n5cccn5)ncc4C3)ncc2Cl)c(C)c1 [Compound A-59, 6-(5′-chloro-3,5-dimethyl-2,4′-bipyridin-2′-yl)-2-(1H-pyrazol-1-yl)-5,6,7,8-tetrahydro-pyrido-[4,3-d]pyrim-idine] | 48.8 |
| Cc1cnc(-c2cc(N3CCc4nc(N5CC(C)OC(C)C5)sc4C3)ncc2Cl)c(C)c1 (stereo not shown) [Compound A-33, 4-(5-(5′-chloro-3,5-dimethyl-2,4′-bipyridin-2′-yl)-4,5,6,7-tetrahydro-thiazolo-[5,4-c]pyridin-2-yl)-2,6-dimethyl-morpholine] | 447 |
| COCC(=O)Nc1cn2c(n1)CN(c1cc(-c3ncc(C)cc3C)c(Cl)cn1)CC2 [Compound A-14, N-(7-(5′-chloro-3,5-dimethyl-2,4′-bipyridin-2′-yl)-5,6,7,8-tetrahydro-imidazo-[1,2-a]pyrazin-2-yl)-2-methoxy-acetamide] | > 1000 |
